For experiment [1], the target named is T1, CDK12 (nuclear staining in CAL-120 cells) (Homo sapiens, UniProt Q9NYV4).
T1 construct: endogenous in cells; host or cells: CAL-120 human breast cancer cells (DSMZ ACC 459)
The experiment is described as follows: CDK12 nuclear protein level: immunofluorescence/high content analysis (CAL-120). It counts as cell-based. As to conditions: for DC50: CAL-120 cells, 24 h, immunofluorescence, 50% reduction of nuclear CDK12 staining intensity, median, read-out: CDK12 degradation IF, DC50- [mol/l] (median); for (IC50 CDK12 high ATP) to (Degradation DC50 CDK12) ratio: ratio of IC50 CDK12 high ATP kinase assay to DC50 CDK12 degradation (IF, CAL-120). The method in brief:
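CAL-120 cells were treated with compound for 24 h at 37 °C, fixed with PFA and immunostained for CDK12. Nuclear CDK12 intensity was quantified by automated image analysis and normalized to DMSO and control. DC50 is the concentration giving 50% reduction of nuclear staining.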

The target of a further experiment is T2, CDK2/CycE (Homo sapiens, UniProt P24941).
T2 construct: purchased ProQinase GmbH (Freiburg, Germany); host or cells: insect cells (Sf9)
In words: CDK2/CycE kinase assay (TR-FRET, 2 mM ATP). It counts as biochemical. As to conditions: 2 mM ATP (high ATP); median; read-out: CDK2/CyclinE, 2 mM ATP (high ATP), IC50 (median). A digest of the protocol: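 GST-tagged human CDK2 and CycE from Sf9 cells, about 10 ng/ml, pre-incubated 15 min at 22 °C with compound in Tris/HCl pH 8.0 buffer. Reaction with 2 mM ATP and 0.75 µM biotinylated peptide for 25 min at 22 °C. Phospho-RB antibody TR-FRET (665/620 nm ratio) read after 1 h; data normalised to no-inhibitor and no-enzyme controls.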
On the technique in general: Time-resolved FRET reads energy transfer from a long-lived donor to a nearby acceptor.

T1 sequence (Q9NYV4 whole entry): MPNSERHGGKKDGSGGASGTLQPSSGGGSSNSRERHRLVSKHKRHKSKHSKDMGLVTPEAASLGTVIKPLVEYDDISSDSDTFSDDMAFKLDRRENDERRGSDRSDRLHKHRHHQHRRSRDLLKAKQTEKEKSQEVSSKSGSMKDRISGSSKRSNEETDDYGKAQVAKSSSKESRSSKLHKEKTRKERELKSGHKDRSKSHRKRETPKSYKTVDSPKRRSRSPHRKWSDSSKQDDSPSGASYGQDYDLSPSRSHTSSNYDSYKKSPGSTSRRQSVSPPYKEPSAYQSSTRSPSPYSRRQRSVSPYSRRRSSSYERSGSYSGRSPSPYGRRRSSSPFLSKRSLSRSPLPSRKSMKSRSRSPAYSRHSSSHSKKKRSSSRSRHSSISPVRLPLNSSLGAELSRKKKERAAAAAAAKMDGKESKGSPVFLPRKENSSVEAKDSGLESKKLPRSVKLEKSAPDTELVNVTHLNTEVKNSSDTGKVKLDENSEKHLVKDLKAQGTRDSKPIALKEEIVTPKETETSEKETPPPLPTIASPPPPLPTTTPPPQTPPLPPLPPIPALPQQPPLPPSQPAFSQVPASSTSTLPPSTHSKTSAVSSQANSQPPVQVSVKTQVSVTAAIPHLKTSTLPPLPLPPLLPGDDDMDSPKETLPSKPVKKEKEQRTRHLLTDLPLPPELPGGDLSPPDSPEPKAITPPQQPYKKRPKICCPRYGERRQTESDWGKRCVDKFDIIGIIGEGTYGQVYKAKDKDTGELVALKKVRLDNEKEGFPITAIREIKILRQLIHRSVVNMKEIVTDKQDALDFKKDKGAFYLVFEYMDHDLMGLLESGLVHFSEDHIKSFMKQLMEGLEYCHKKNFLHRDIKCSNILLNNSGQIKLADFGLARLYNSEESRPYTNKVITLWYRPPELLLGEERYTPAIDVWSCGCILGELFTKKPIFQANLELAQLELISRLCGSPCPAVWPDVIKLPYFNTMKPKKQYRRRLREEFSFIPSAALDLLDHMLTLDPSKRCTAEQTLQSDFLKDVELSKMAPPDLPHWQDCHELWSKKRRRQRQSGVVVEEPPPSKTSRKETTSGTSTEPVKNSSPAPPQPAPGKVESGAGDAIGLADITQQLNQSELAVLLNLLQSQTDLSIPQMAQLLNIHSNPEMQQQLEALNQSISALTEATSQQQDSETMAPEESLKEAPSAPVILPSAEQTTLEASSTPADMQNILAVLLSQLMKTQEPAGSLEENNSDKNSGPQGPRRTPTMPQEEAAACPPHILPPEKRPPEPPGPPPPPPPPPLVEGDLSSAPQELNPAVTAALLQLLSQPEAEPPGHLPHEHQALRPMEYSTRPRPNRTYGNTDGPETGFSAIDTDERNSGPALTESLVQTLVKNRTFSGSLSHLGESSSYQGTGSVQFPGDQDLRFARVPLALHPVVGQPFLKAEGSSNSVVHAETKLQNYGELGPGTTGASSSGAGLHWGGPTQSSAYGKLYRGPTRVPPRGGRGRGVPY
T1 sequence (O75909 whole entry partner): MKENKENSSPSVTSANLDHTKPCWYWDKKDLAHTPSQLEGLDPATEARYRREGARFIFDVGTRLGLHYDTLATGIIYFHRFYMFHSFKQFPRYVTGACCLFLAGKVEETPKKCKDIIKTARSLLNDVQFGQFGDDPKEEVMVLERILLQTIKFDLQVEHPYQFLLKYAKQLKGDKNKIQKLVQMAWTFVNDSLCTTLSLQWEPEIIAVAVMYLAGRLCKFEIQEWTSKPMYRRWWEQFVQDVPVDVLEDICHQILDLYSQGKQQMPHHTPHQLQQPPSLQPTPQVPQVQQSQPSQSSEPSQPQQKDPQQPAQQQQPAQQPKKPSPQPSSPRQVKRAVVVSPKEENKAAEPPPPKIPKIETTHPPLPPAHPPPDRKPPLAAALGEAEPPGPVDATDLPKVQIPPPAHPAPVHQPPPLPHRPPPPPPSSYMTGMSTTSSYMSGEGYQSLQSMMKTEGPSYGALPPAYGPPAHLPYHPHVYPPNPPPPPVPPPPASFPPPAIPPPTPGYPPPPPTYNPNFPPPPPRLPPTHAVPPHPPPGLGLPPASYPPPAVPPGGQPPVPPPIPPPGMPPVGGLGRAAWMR

As for `CC(C)c1cnn2c(NCc3ncc(-c4ccccc4)[nH]3)nc(N3CCN(C)CC3)nc12` [Example 31, 2-(4-methylpiperazin-1-yl)-N-[(5-phenyl-1H-imidazol-2-yl)methyl]-8-(propan-2-yl)pyrazolo[1,5-a][1,3,5]triazin-4-amine], in experiment [1], the DC50 was found to be 19.7 nM and the “(IC50 CDK12 high ATP) to (Degradation DC50 CDK12) ratio” value worked out at 689. The IC50 on CDK2/CycE came out at 17500 nM.
Turning to `FC(F)(F)Oc1cccc2[nH]c(CNc3nc(N4CCOCC4)nc4c(Br)cnn34)nc12` [Example 375, 8-bromo-2-(morpholin-4-yl)-N-{[4-(trifluoromethoxy)-1H-benzimidazol-2-yl]methyl}pyrazolo[1,5-a][1,3,5]triazin-4-amine], in experiment [1], the DC50 worked out at 58.1 nM and the “(IC50 CDK12 high ATP) to (Degradation DC50 CDK12) ratio” value came out at 79. Also, on CDK2/CycE, the IC50 was found to be 11900 nM.
The corresponding values for `FC(F)(F)Oc1ccc2[nH]c(CNc3nc(N4C[C@H]5CC[C@@H](C4)N5)nc4c(Br)cnn34)nc2c1` [Example 382, 8-bromo-2-[(1R,5S)-3,8-diazabicyclo[3.2.1]octan-3-yl]-N-{[5-(trifluoromethoxy)-1H-benzimidazol-2-yl]methyl}pyrazolo[1,5-a][1,3,5]triazin-4-amine] are 79.7 nM, 10 and 14200 nM.
Turning to `Cc1cc2nc(CNc3nc(N4CC5CCC(C4)N5)nc4c(C5CC5)cnn34)[nH]c2cc1C` [Example 326, 8-cyclopropyl-2-(3,8-diazabicyclo[3.2.1]octan-3-yl)-N-[(5,6-dimethyl-1H-benzimidazol-2-yl)methyl]pyrazolo[1,5-a][1,5]triazin-4-amine], in experiment [1], the DC50 amounted to 4.77 nM and the “(IC50 CDK12 high ATP) to (Degradation DC50 CDK12) ratio” value is listed as 198. Further, the IC50 on CDK2/CycE was determined as 4140 nM.
Consider `CC[C@@H](CO)Nc1nc(NCc2nc3ccccc3[nH]2)n2ncc(Br)c2n1` [Example 367, (2S)-2-[(4-{[(1H-benzimidazol-2-yl)methyl]amino}-8-bromopyrazolo[1,5-a][1,3,5]triazin-2-yl)amino]butan-1-ol], for which, in experiment [1], the DC50 is 12.7 nM and the “(IC50 CDK12 high ATP) to (Degradation DC50 CDK12) ratio” value amounted to 231. The IC50 at CDK2/CycE was determined as 573 nM.
Consider `Fc1cc2nc(CNc3nc(N4CC5CCC(C4)N5)nc4c(Br)cnn34)[nH]c2cc1Cl` [Example 348, 8-bromo-N-[(6-chloro-5-fluoro-1H-benzimidazol-2-yl)methyl]-2-(3,8-diazabicyclo[3.2.1]octan-3-yl)pyrazolo[1,5-a][1,3,5]triazin-4-amine], for which, in experiment [1], the DC50 was determined as 5.3 nM and the “(IC50 CDK12 high ATP) to (Degradation DC50 CDK12) ratio” value is 546. Further, the IC50 at CDK2/CycE was 13200 nM.
On to `CN(CC(C)(C)O)c1nc(NCc2nc3cc(Cl)c(Cl)cc3[nH]2)n2ncc(Br)c2n1` [Example 331, 1-[(8-bromo-4-{[(5,6-dichloro-1H-benzimidazol-2-yl)methyl]amino}pyrazolo[1,5-a][1,3,5]triazin-2-yl)(methyl)amino]-2-methylpropan-2-ol], for which, in experiment [1], the DC50 turned out to be 6 nM and the “(IC50 CDK12 high ATP) to (Degradation DC50 CDK12) ratio” value stood at 58. The IC50 at CDK2/CycE was 7310 nM.
`CN(CC(C)(C)O)c1nc(NCc2nc3cc(C(F)(F)F)ccc3[nH]2)n2ncc(C3CC3)c2n1` [Example 323, 1-{[8-cyclopropyl-4-({[5-(trifluoromethyl)-1H-benzimidazol-2-yl]methyl}amino)pyrazolo[1,5-a][1,3,5]triazin-2-yl](methyl)amino}-2-methylpropan-2-ol]: in experiment [1], the DC50 was determined as 16.9 nM and the “(IC50 CDK12 high ATP) to (Degradation DC50 CDK12) ratio” value was 169. Besides, the IC50 at CDK2/CycE was 13500 nM.
The like results for `Fc1cc(F)cc(-c2nnc(CNc3nc(N4CCOCC4)nc4c(C(F)(F)F)cnn34)[nH]2)c1` [Example 386, N-{[5-(3,5-difluorophenyl)-4H-1,2,4-triazol-3-yl]methyl}-2-(morpholin-4-yl)-8-(trifluoromethyl)pyrazolo[1,5-a][1,3,5]triazin-4-amine] were, in that order, 9.83 nM, 12 and 1450 nM.
In the case of `CN1CCN(c2nc(NCc3nc4cc(F)c(F)cc4[nH]3)n3ncc(Br)c3n2)CC1` [Example 346, 8-bromo-N-[(5,6-difluoro-1H-benzimidazol-2-yl)methyl]-2-(4-methylpiperazin-1-yl)pyrazolo[1,5-a][1,3,5]triazin-4-amine], in experiment [1], the DC50 was 2.35 nM and the “(IC50 CDK12 high ATP) to (Degradation DC50 CDK12) ratio” value is 5220. In addition, the IC50 at CDK2/CycE is more than 20000 nM.
Take `CN1CCN(c2nc(NCc3nc4c(F)c(F)ccc4[nH]3)n3ncc(Cl)c3n2)CC1` [Example 358, 8-chloro-N-[(4,5-difluoro-1H-benzimidazol-2-yl)methyl]-2-(4-methylpiperazin-1-yl)pyrazolo[1,5-a][1,3,5]triazin-4-amine]: in experiment [1], the DC50 turned out to be 5.33 nM and the “(IC50 CDK12 high ATP) to (Degradation DC50 CDK12) ratio” value is 2182. In addition, on CDK2/CycE, the IC50 was more than 20000 nM.
Regarding `CN(CC(C)(C)O)c1nc(NCc2nc3cc(F)c(Cl)cc3[nH]2)n2ncc(Br)c2n1` [Example 338, 1-[(8-bromo-4-{[(6-chloro-5-fluoro-1H-benzimidazol-2-yl)methyl]amino}pyrazolo[1,5-a][1,3,5]triazin-2-yl)(methyl)amino]-2-methylpropan-2-ol], in experiment [1], the DC50 stood at 0.894 nM and the “(IC50 CDK12 high ATP) to (Degradation DC50 CDK12) ratio” value is reported as 1320. At CDK2/CycE, the IC50 was determined as 6570 nM.
As for `CN1CCN(c2nc(NCc3nc4c(F)c(Cl)ccc4[nH]3)n3ncc(Br)c3n2)CC1` [Example 373, 8-bromo-N-[(5-chloro-4-fluoro-1H-benzimidazol-2-yl)methyl]-2-(4-methylpiperazin-1-yl)pyrazolo[1,5-a][1,3,5]triazin-4-amine], in experiment [1], the DC50 worked out at 1.12 nM and the “(IC50 CDK12 high ATP) to (Degradation DC50 CDK12) ratio” value is given as 2719. Also, the IC50 at CDK2/CycE stood at 7500 nM.
In the case of `FC(F)(F)Oc1cccc2[nH]c(CNc3nc(N4C[C@H]5CC[C@@H](C4)N5)nc4c(Br)cnn34)nc12` [Example 381, 8-bromo-2-[(1R,5S)-3,8-diazabicyclo[3.2.1]octan-3-yl]-N-{[4-(trifluoromethoxy)-1H-benzimidazol-2-yl]methyl}pyrazolo[1,5-a][1,3,5]triazin-4-amine], in experiment [1], the DC50 came to 22.2 nM and the “(IC50 CDK12 high ATP) to (Degradation DC50 CDK12) ratio” value turned out to be 266. Further, on CDK2/CycE, the IC50 was more than 20000 nM.
For `Cc1cc2nc(CNc3nc(N4CCOCC4)nc4c(Br)cnn34)[nH]c2cc1C` [Example 340, 8-bromo-N-[(5,6-dimethyl-1H-benzimidazol-2-yl)methyl]-2-(morpholin-4-yl)pyrazolo[1,5-a][1,3,5]triazin-4-amine], in experiment [1], the DC50 was 7.8 nM and the “(IC50 CDK12 high ATP) to (Degradation DC50 CDK12) ratio” value is given as 79. Further, at CDK2/CycE, the IC50 worked out at 1160 nM.
The corresponding values for `Fc1cc2nc(CNc3nc(N4CCOCC4)nc4c(Br)cnn34)[nH]c2cc1F` [Example 341, 8-bromo-N-[(5,6-difluoro-1H-benzimidazol-2-yl)methyl]-2-(morpholin-4-yl)pyrazolo[1,5-a][1,3,5]triazin-4-amine] are 3.55 nM, 624 and 9360 nM.
Turning to `Brc1cnn2c(NCc3nc4ccccc4[nH]3)nc(N3CC4CCC(C3)O4)nc12` [Example 351, N-[(1H-benzimidazol-2-yl)methyl]-8-bromo-2-(8-oxa-3-azabicyclo[3.2.1]octan-3-yl)pyrazolo[1,5-a][1,3,5]triazin-4-amine], in experiment [1], the DC50 is 24 nM and the “(IC50 CDK12 high ATP) to (Degradation DC50 CDK12) ratio” value worked out at 390. Besides, the IC50 at CDK2/CycE was determined as 7390 nM.
Turning to `Fc1ccc2[nH]c(CNc3nc(N4CC5CCC(C4)N5)nc4c(Cl)cnn34)nc2c1F.O=CO` [Example 360, formic acid 8-chloro-2-(3,8-diazabicyclo[3.2.1]octan-3-yl)-N-[(4,5-difluoro-1H-benzimidazol-2-yl)methyl]pyrazolo[1,5-a][1,3,5]triazin-4-amine], in experiment [1], the DC50 was 6.45 nM and the “(IC50 CDK12 high ATP) to (Degradation DC50 CDK12) ratio” value was found to be 622. The IC50 at CDK2/CycE was 12100 nM.
On to `Fc1cc2nc(CNc3nc(N4CC5CCC(C4)N5)nc4c(Br)cnn34)[nH]c2cc1F` [Example 355, 8-bromo-2-(3,8-diazabicyclo[3.2.1]octan-3-yl)-N-[(5,6-difluoro-1H-benzimidazol-2-yl)methyl]pyrazolo[1,5-a][1,3,5]triazin-4-amine], for which, in experiment [1], the DC50 is 23.5 nM and the “(IC50 CDK12 high ATP) to (Degradation DC50 CDK12) ratio” value is 178. At CDK2/CycE, the IC50 was more than 18600 nM.
Take `CN(CC(C)(C)O)c1nc(NCc2nc3cc(C(F)(F)F)ccc3[nH]2)n2ncc(Br)c2n1` [Example 345, 1-{[8-bromo-4-({[5-(trifluoromethyl)-1H-benzimidazol-2-yl]methyl}amino)pyrazolo[1,5-a][1,3,5]triazin-2-yl](methyl)amino}-2-methylpropan-2-ol]: in experiment [1], the DC50 was 3.98 nM and the “(IC50 CDK12 high ATP) to (Degradation DC50 CDK12) ratio” value was 166. Besides, the IC50 on CDK2/CycE was 6070 nM.
`Brc1cnn2c(NCc3nc4ccccc4[nH]3)nc(N3C[C@H]4CC[C@@H]3CN4)nc12` (single isomer, unassigned) [Example 335, N-[(1H-benzimidazol-2-yl)methyl]-8-bromo-2-{[1R or S-(1R*,4R*)]-2,5-diazabicyclo[2.2.2]octan-2-yl}pyrazolo[1,5-a][1,3,5]triazin-4-amine]: in experiment [1], the DC50 came to 8.34 nM and the “(IC50 CDK12 high ATP) to (Degradation DC50 CDK12) ratio” value is recorded as 798. Moreover, the IC50 at CDK2/CycE came to 2800 nM.

These data come from patent US20230117034A1, “PYRAZOLOTRIAZINES” (Bayer Aktiengesellschaft, priority 2019, published 2023).
